Assay results as given in patent US20240173432A1, “Compositions and Methods for Treatment of Myotonic Dystrophy Type 1 with CRISPR/SluCas9” (Vertex Pharmaceuticals Incorporated, priority 2021, published 2024).

Experiments:
[1] = test system: CUG foci in primary DM1 patient myoblasts; assay: Dual-cut screening: FISH staining of CUG RNA foci; assay type: cell-based, human; settings: sgRNAs working with partner(s) or alone
How it was run: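 SluCas9 RNPs (protein:sgRNA 1:3; 20 pmol SluCas9 + 60 pmol sgRNA per guide, paired 1:1) nucleofected into primary DM1 patient myoblasts, then DMSO or 3 μM DNA-PKi Compound 6 for 48 h. At 72 h post-nucleofection cells fixed, FISH-stained with Cy3-PNA(CAG)5 probe plus anti-MBNL1 and Hoechst; % CUG foci-free nuclei by high-content confocal imaging.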

[2] = test system: CAG foci in primary DM1 patient myoblasts; assay: Single-cut screening: CAG foci staining; assay type: cell-based, human; settings: single sgRNA; for % of CAG foci positive nuclei (DNA-PKi): DNA-PKi treated
How it was run: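 Primary DM1 patient myoblasts were PFA-fixed and hybridized with […] (1 ng/μL, 15 min at 80° C) in 30% formamide/2×SSC, followed by anti-MBNL1 immunostaining and Hoechst counterstain. CAG RNA foci were quantified by high-content confocal imaging after single-cut SuCas9 sgRNA editing.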

Substance	RNA foci reduction efficiency [1]	% of CAG foci positive nuclei (DNA-PKi) [2] [%]	% of CAG foci positive nuclei (Vehicle) [2] [%]
ggggcTCGAAGGGTCCTTGTAG (as printed in the source, key not given here) [SluU63]	exceptionally high RNA foci reduction efficiency	5.49	3.29
gggcTCGAAGGGTCCTTGTAGC (as printed in the source, key not given here) [SluU64]	exceptionally high RNA foci reduction efficiency	2.58	1.23
GCCCCGTTGGAAGACTGAGTGC (listed as DNA, chemistry not fully specified) [SluU08]	exceptionally high RNA foci reduction efficiency	1.61	2.21
ATGGGCAAACTGCAGGCCTGGG (listed as DNA, chemistry not fully specified) [SluD14]	exceptionally high RNA foci reduction efficiency	3.96	6.7
